Measurements from article PMC5213423, “Identification of a Drug Targeting an Intrinsically Disordered Protein Involved in Pancreatic Adenocarcinoma” (Scientific Reports, 2017).
Counter-ions that a name gives are not always drawn. Like-named read-outs stand apart in the source and are kept apart here.

What was measured:
NUPR1 [1] = biological target: T1, NUPR1 (Homo sapiens, UniProt O60356); assay: Isothermal titration calorimetry (ITC) of compound binding to NUPR1; conditions: 25 °C; for Kd: 20 mM sodium phosphate pH 7, relative error is 20%
T1 construct: made in house; host or cells: E. coli
T1 sequence (O60356 1-82): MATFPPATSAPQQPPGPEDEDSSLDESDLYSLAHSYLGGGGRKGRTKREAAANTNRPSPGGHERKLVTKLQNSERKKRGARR
Experimental: Ligand binding to NUPR1 was determined with a high sensitivity isothermal titration calorimeter Auto-iTC200 (MicroCal–Malvern Instruments, Malvern UK). Protein samples and reference solutions were properly degassed and carefully loaded into the calorimetric cells to avoid bubble formation during stirring. Experiments were performed with freshly prepared buffer-exchanged protein solutions, at 25 °C in 20 mM sodium phosphate pH 7. NUPR1 20 μM solution in the calorimetric cell was titrated with 300–400 μM compound solution. A sequence of 19 injections of 2 μL volume was programmed with a stirring speed of 1000 rpm. The heat evolved after each ligand injection was obtained from the integral of the calorimetric signal. The heat due to the binding reaction was obtained as the difference between the reaction heat and the corresponding heat of dilution, the latter estimated as a constant value throughout the experiment, and included as an adjustable parameter in the analysis. Control experiments (compound injected into buffer) were performed under the same experimental conditions. The association constant (Ka) and the enthalpy change (ΔH) of the binding reaction were obtained through non-linear regression of experimental data to a model for a protein with a single ligand binding site. Experiments were performed in replicates and data were analyzed using in-house developed software implemented in Origin 7 (OriginLab, Northampton, MA).

MiaPaCa-2 cells [2] = assay: Chemograms of Gemcitabine or Oxaliplatin with or without Compound-15
Experimental: (§2) Cells (10000 cells/well) were plated in 96-well plates with DMEM. Twenty-four hours later, the media were supplemented with 10 μM of Compound and were incubated for another additional six days. Each experiment was performed in duplicate and repeated at least three times. Cell viability was estimated after addition of the CellTiter-Blue viability reagent (Promega, Madrid, Spain) for 1 h according to the protocol provided by the supplier. Cell viability was measured on day 6 and normalized regarding untreated cells rates. Statistical significance was assumed at a p-value lower than 0.05.

NUPR1 [3] = biological target: T1, NUPR1; assay: 2D 1H-15N HSQC NMR cross-peak broadening of NUPR1 upon compound addition; assay type: binding; conditions: NUPR1 100 μM : compound 400 μM, 25 °C, pH 4.5
Experimental: The NMR data were acquired at 25 °C, pH 4.5 (acetate buffer), on a Bruker Avance DRX-500 spectrometer equipped with a triple-resonance probe and z-gradients. All spectra were referenced to external TSP.
The 2D ^1H-^15N heteronuclear single-quantum coherence (HSQC) spectra[42] were acquired in the phase sensitive mode for isolated ^15N-labelled NUPR1 (100 μM) or ^15N-labelled NUPR1 (100 μM) in the presence of the corresponding compound (400 μM). […] Frequency discrimination in the indirect dimensions was achieved by using the echo/antiecho-TPPI method. […] The carrier of the ^1H dimension was set at 8.00 ppm, and that of ^15N at 120 ppm. The spectral widths used were 10 and 35 ppm in the ^1H and ^15N dimensions, respectively. Water signal was suppressed with the WATERGATE sequence. Data were zero-filled to double the number of original points in both dimensions, apodized with shifted squared sine-bell functions in the two dimensions and Fourier transformed with the program TopSpin 1.2. Assignments were taken from those previously reported. The intensity of the signals from each row in the HSQC spectra was measured by using TopSpin 2.1 taking into account, as an internal reference, the intensity of the last residue of NUPR1. Only differences in intensity of a particular residue between spectra of the complex (NUPR1:Compound) and that of isolated NUPR1 larger than 10%, were considered significant.

MiaPaCa-2 cells [4] = assay: Cell viability assay (CellTiter-Blue), MiaPaCa-2
Experimental: as §2

MiaPaCa-2 cells [5] = assay: Colony formation in soft agar (clonogenicity); assay type: cell-based, human; conditions: 10 μM compound
Experimental: Colony formation assay was performed in order to measure the in vitro survival ability of a single cell to grow into a colony in an anchorage-independent growth environment. Briefly, after treating MiaPaCa-2 cells with either the compounds or DMSO (as control) for 24 and 48 h, they were seeded in DMEM complete media at a density of 7 × 10^3 cells in 6-well plates containing a top layer of 0.7% agar and a bottom layer of 1% agar. Plates were incubated at 37 °C for 3 to 4 weeks and then stained with 0.2% crystal violet. […] Comparisons of treatment outcome were tested for statistical significance by using the t-test.

NUPR1/MSL1 interaction = biological target: T2, NUPR1/MSL1 interaction (Homo sapiens, UniProt O60356); assay: Proximity ligation assay (PLA) of NUPR1-MSL1 interaction after Oxaliplatin-induced DNA damage; assay type: cell-based; conditions: 1 to 20 μM compound, Oxaliplatin 10 μM, 24 h
T2 construct: expressed in transfected cells; host or cells: MiaPaCa-2 (human pancreatic cancer cells)
T2 sequence (O60356 1-82): T1 sequence (O60356 1-82)
Experimental: MiaPaCa-2 cells were seeded on coverslips and transfected with 300 ng of DNA (NUPR1-Flag and MSL1-V5) using Fugene HDTM transfection reagent (Roche, Meylan, France). […] Cells were washed twice in PBS, fixed, permeabilized and saturated for 45 min before immunostaining with DuoLink kit (Olink Bioscience, Uppsala, Sweden) following the manufacturer’s protocol. Image acquisition was carried out on a Nikon Eclipse 90i fluorescence microscope (Nikon Instruments, Amsterdam, Netherlands). Images at 40x magnification were analyzed with ImageJ to count the number of red dots which represent NUPR1/MSL1 binding. The reduction in the number of red fluorescent dots is proportional to the inhibition of MSL1-NUPR1 interaction by Compound-15.

[6] = tested on: primary murine PDAC cell line WT; assay: Cell viability assay, primary murine PDAC cells, NUPR1 wild-type (WT); assay type: cell-based, mouse; conditions: 6 days
Experimental: (§1) MiaPaCa-2 cells were obtained from ATCC (Manassas, VA) and maintained in Dulbecco’s Modified Eagle’s Medium (DMEM) (Invitrogen, Carlsbad, CA) supplemented with 10% FBS (Foetal Bovine Serum) at 37 °C with 5% CO2. MiaPaCa-2 cells were authenticated using Short Tandem Repeat analysis (LGC Standards GmbH, Wesel, Germany). […]in reagent (Polyplus-transfection, Illkirch, France) was used to perform siRNA transfections according to the manufacturer’s protocol. Scrambled siRNA targeting no known gene sequence was used as negative control. The sequence of NUPR1-specific siRNA-nupr1 r([…])dTdT was previously reported. Knock-out cells were established in the laboratory from a mice model of pancreatic cancer, known as Pdx1-Cre-Kras^G12D/INK4^flox/flox and for those nupr1 was deleted. These cells have been supplied with DMEM (4.5 g/L) and Glutamax (Life Technologies, Carlsbad, CA), supplemented with 10% of FBS.

[7] = tested on: primary murine PDAC cell line NUPR1 KO; assay: Cell viability assay, primary murine PDAC cells, NUPR1 knocked-out (KO); assay type: cell-based, mouse; conditions: 6 days
Experimental: as §1

MiaPaCa-2 cells [8] = assay: Real-time iCELLigence impedance proliferation assay; assay type: cell-based, human; conditions: 10 μM Compound-15 vs 60 nM Gemcitabine, 4 μM Oxaliplatin
Experimental: Cell proliferation was monitored in real-time using the […] system E-Plate (ACEA Biosciences, San Diego, CA). Forty thousand MiaPaCa-2 cells were seeded in each well with fresh DMEM. […] Cells were incubated for another 3 days. The impedance value of each well was automatically monitored by the […] system for 3 days and expressed as a CI (cell index) value.

MiaPaCa-2 cells [9] = assay: Wound healing (cell migration) assay; assay type: cell-based, human; conditions: 10 μM, after 48 h
Experimental: Cells (10000 cells/well) were seeded in 24-well plates and grown to confluence. […] Either fresh medium with 10 μM of the corresponding compound were added or DMSO (as control). Cell migration to the wounded region was observed using an automated fluorescence inverted microscope Leica DMI 6000B with MetaMorph MM AF analysis software (Leica Microsystems, Wetzlar, Germany). Images were captured at 0, 24 and 48 h to monitor the wound healing process. The wound areas were measured using ImageJ software (NIH, Bethesda, MD). Comparisons of treatment outcome were tested for statistical significance by using the t-test. Statistical significance was assumed at a p-value lower than 0.05.

[10] = tested on: human PDAC-derived xenografts (MiaPaCa-2); assay: Subcutaneous MiaPaCa-2 xenograft in NMRI-Nude mice; assay type: in vivo; conditions: for Tumor volume: start 400 mm^3
Experimental: NMRI-Foxn1^nu/Foxn1^nu mice were provided by Janvier Laboratories (Le Genest-Saint-Isle, France). Mice were kept within the Experimental Animal House of the Centre de Cancérologie de Marseille (CRCM) pôle Luminy. All experimental protocols were carried out in accordance with nationally approved guidelines for the treatment of laboratory animals. All experimental procedures on animals were approved by the Comité d’éthique de Marseille numéro 14. Ten millions MiaPaCa-2 cells were inoculated subcutaneously and mice were separated into 3 groups of 6 subjects each. Mice were treated daily with either physiologic serum, 5 mg/kg or 10 mg/kg of the compound when the tumor volume reached approximately 400 mm^3. Every 5 days, the weight and the tumors volumes were measured. Mice were sacrificed after 35 days of treatment.

CC(C)(C)c1ccc(C(O)CCCN2CCC(C(O)(c3ccccc3)c3ccccc3)CC2)cc1 (stereo not shown) [Compound-1, Terfenadine]
Kd (NUPR1 [1]): 5 µM

Nc1ccn([C@@H]2O[C@H](CO)[C@@H](O)C2(F)F)c(=O)n1 [Gemcitabine]
IC50 (MiaPaCa-2 cells [2]; Homo sapiens, MIA PaCa-2, 72 h, read-out: IC50 (concentration reducing cell viability to one half)): 0.06 µM
viability at 0.06 µM (MiaPaCa-2 cells [2]; Homo sapiens, MIA PaCa-2, read-out: Cell viability): 41 ± 0.4%

CCCCN(CCCC)CCC(O)c1cc2c(Cl)cc(Cl)cc2c2cc(C(F)(F)F)ccc12 (stereo not shown) [Compound-7, Halofantrine hydrochloride]
Kd (NUPR1 [1]): 3.3 µM
Residues of NUPR1 with NMR-cross-peak broadening affected by binding (NUPR1 [3]): Thr68

O=C1[O][Pt]2([NH][C@@H]3CCCC[C@H]3[NH]2)[O]C1=O [Oxaliplatin]
Cell viability (MiaPaCa-2 cells [4]; MiaPaCa-2, 10 μM of each compound, 6 days, normalized to untreated cells): 10 ± 2%
Cell viability (MiaPaCa-2 cells [2]; 4 μM Oxaliplatin alone): 53 ± 0.4%
IC50 (MiaPaCa-2 cells [2]; drug alone, MiaPaCa-2, 3 days): 4 µM

Fc1ccc(C(c2ccc(F)cc2)N2CCN(C/C=C/c3ccccc3)CC2)cc1 [Compound-6, Flunarizine dihydrochloride]
Kd (NUPR1 [1]): 3.1 µM
Residues of NUPR1 with NMR-cross-peak broadening affected by binding (NUPR1 [3]): Ala33; Thr68

CC(C)N1CCN(c2ccc(OCC3COC(Cn4cncn4)(c4ccc(Cl)cc4Cl)O3)cc2)CC1 (stereo not shown) [Compound-11, Terconazole]
Residues of NUPR1 with NMR-cross-peak broadening affected by binding (NUPR1 [3]): Thr68

C[C@H](N)[C@H](O)c1ccc(O)c(O)c1 [Compound-8, Levonordefrin]
Kd (NUPR1 [1]): 1.5 µM
Residues of NUPR1 with NMR-cross-peak broadening affected by binding (NUPR1 [3]): Ala33; Thr68

CN1CCN(CCCN2c3ccccc3Sc3ccc(C(F)(F)F)cc32)CC1 [Compound-15, Trifluoperazine dihydrochloride]
Kd (NUPR1 [1]): 5.2 µM
ΔG (Gibbs energy of binding) (NUPR1 [1]; pH 7): -7.2 kcal/mol
ΔH of binding (NUPR1 [1]; pH 7): -1.1 kcal/mol
−TΔS of binding (NUPR1 [1]; pH 7): -6.1 kcal/mol
Residues of NUPR1 with NMR-cross-peak broadening affected by binding (NUPR1 [3]): Ala33; Thr68
Colony formation (MiaPaCa-2 cells [5]): completely inhibited colony formation
NUPR1 and MSL1 interaction (PLA red dots) (NUPR1/MSL1 interaction): interfered in the NUPR1-MSL1 interaction
viability at 10 µM ([6]; Mus musculus, 144 h, WT murine cells): 35%
NUPR1-dependent effect ([6]; difference WT vs KO viability, 10 μM): around 37%
viability at 10 µM ([7]; Mus musculus, 144 h, NUPR1 KO murine cells): 72%
NUPR1-independent killing effect ([7]; from KO cell viability, 10 μM): ~28%
Growth arrest in real-time proliferation compared with Oxaliplatin or Gemcitabine (MiaPaCa-2 cells [8]): stronger growth-arrest
Distance migrated compared to Compound-free cells (MiaPaCa-2 cells [9]): 25%
Tumor volume increase compared to the control ([10]; 5 mg/kg daily, two weeks): 50%
Tumor volume ([10]; 5 mg/kg daily, two weeks): 767 ± 196 mm^3
Tumor volume ([10]; 10 mg/kg daily, two weeks): 558 ± 152 mm^3
Tumor growth ([10]; 10 mg/kg daily, up to 4 weeks): rapidly, and almost completely, stopped
viability at 10 µM (MiaPaCa-2 cells [4]; Homo sapiens, MIA PaCa-2, 144 h, read-out: Cell viability): 26 ± 7%

COC(=O)[C@H]1[C@H]2C[C@@H]3c4[nH]c5cc(OC)ccc5c4CCN3C[C@H]2C[C@@H](OC(=O)c2cc(OC)c(OC)c(OC)c2)[C@@H]1OC [compound 4, Reserpine]
Kd (NUPR1 [1]): 3.2 µM
Residues of NUPR1 with NMR-cross-peak broadening affected by binding (NUPR1 [3]): Thr68

O=C(O)/C=C/c1ccc(O)c(O)c1 [compound 3, Caffeic acid]
Kd (NUPR1 [1]): 2 µM
Residues of NUPR1 with NMR-cross-peak broadening affected by binding (NUPR1 [3]): Ala33; Thr68

OCCN1CCN(CCCN2c3ccccc3Sc3ccc(C(F)(F)F)cc32)CC1 [Compound-2, Fluphenazine dihydrochloride]
Kd (NUPR1 [1]): 2 µM
Residues of NUPR1 with NMR-cross-peak broadening affected by binding (NUPR1 [3]): Thr68

CC(C)NCC(O)c1ccc(O)c(O)c1.Cl (single isomer, unassigned; (-)) [compound 5, (-)-Isoproterenol hydrochloride]
Kd (NUPR1 [1]): 3.9 µM
Residues of NUPR1 with NMR-cross-peak broadening affected by binding (NUPR1 [3]): Thr68

CC(C)NCC(O)c1ccc(O)c(O)c1.O=C(O)C(O)C(O)C(=O)O (single isomer, unassigned; (+)) [Compound-9, (+)-Isoproterenol (+)-bitartrate salt]
Kd (NUPR1 [1]): 4 µM
Residues of NUPR1 with NMR-cross-peak broadening affected by binding (NUPR1 [3]): Ser9; Ala10; Leu29; Ala33; Gly38; Thr68

CN(C)CCC(c1ccccc1)c1ccccn1 (stereo not shown) [compound 10, Pheniramine maleate]
Kd (NUPR1 [1]): 4.3 µM
Residues of NUPR1 with NMR-cross-peak broadening affected by binding (NUPR1 [3]): Ser9; His62; Thr68

CN(C)[C@@H]1C(O)=C(C(N)=O)C(=O)[C@@]2(O)C(O)=C3C(=O)c4c(O)ccc(Cl)c4[C@@](C)(O)[C@H]3C[C@@H]12 [compound 14, Chlortetracycline hydrochloride]
Kd (NUPR1 [1]): 1.5 µM
Residues of NUPR1 with NMR-cross-peak broadening affected by binding (NUPR1 [3]): Ala33; Thr68

CC(C)(C)CC(C)(C)c1ccc(OCCOCC[N+](C)(C)Cc2ccccc2)cc1 [Compound-13, Benzethonium chloride]
Colony formation (MiaPaCa-2 cells [5]): completely inhibited colony formation
